Data taken from patent publication US12121514B2, “Nonselective metabotropic glutamate receptor activators for treatment of attention deficit disorder and 22Q syndrome” (THE CHILDREN'S HOSPITAL OF PHILADELPHIA, priority 2015, dated 2024).
Where “and” joins values, the source holds several entries; their conditions need not be identical. Equal values may be shown once.

System: adolescent subjects with ADHD and at least one genetic alteration in an mGluR network gene
Assay: Vanderbilt ADHD score (items 1-18, parent), Phase Ib trial of NFC-1
Format: in vivo, human
Source text: The Vanderbilt Rating Scale is a measure that can be completed by parents or teachers (separate forms, see Vanderbilt Rating Scale Parents and Vanderbilt Rating Scale Teachers). The Vanderbilt scale rates the child's behavior on items such as attention, finishing tasks, hyperactivity, difficulty waiting, and measures of conduct or oppositional defiant disorders—as well as measures of overall school performance and interactions with others. The first 18 items on the Vanderbilt scale correspond to those of the ADHD Rating Scale IV above while the Vanderbilt scale also includes items 19-47 related to other mental disorders including ODD (items 19-26), conduct disorder (items 27-40), anxiety (items 41, 42, and 47), and depression (items 43-46). Each of the behavioral assessment items on the Vanderbilt Scale are rated 0, 1, 2, or 3, with 0=never occurring; 1=occasionally, 2=often, and 3=very often. Thus, the ADHD Rating Scale IV, ADHD Rating Scale V, and items 1-18 of the Vanderbilt Rating Scale are equivalent scales, while additional items on the Vanderbilt Scale assess co-morbid phenotypes and disorders.
Each of the items are rated on a scale of 0, 1, 2, or 3, with 0=never; 1=occasionally, 2=often, and 3=very often. A total score of 0 to 54 is computed based on the answers to the 18 questions.
As used herein an “ADHD rating scale score,” “ADHD score” or “Vanderbilt ADHD score” are used interchangeably to refer to the computed score of the 18 items of the ADHD Rating Scale IV or V or the first 18 items of the Vanderbilt Rating Scale in any of their associated versions, e.g., for parent, teacher, or clinician to complete, and for a pediatric subject or adult subject. Clinical trials may assess the impact of drug or placebo on the ADHD score or Vanderbilt ADHD score (i.e. the score of 0 to 54 based on the first 18 items in the ADHD or Vanderbilt rating scale). In some cases, results of a clinical trial population may be analyzed by comparing the average score or a percentage change in score over time of administration of drug.
An open-label Phase Ib clinical trial was initiated to investigate the safety, pharmacokinetics and efficacy of NFC-1 (fasoracetam monohydrate) in adolescent subjects between the ages of 12 and 17 previously diagnosed with ADHD who also had at least one genetic alteration in an mGluR network gene.
Dose-escalation phase of the trial followed the PK and initial safety assessment and ran over a 5-week period. During week 1, all subjects were administered placebo capsules twice daily. After one week of placebo treatment, patients were started on 50 mg bid NFC-1 for 1 week. If safety and responsiveness data from prior dose level of fasoracetam indicated it was appropriate, subjects were then escalated to the next higher dose (100, 200, or 400 mg). […] Of the 30 trial subjects, 3 received a maximum dose of 100 mg, 9 received a maximum dose of 200 mg, and the remaining 18 received a maximum dose of 400 mg.
All efficacy assessments, except actigraphy, were made at study enrollment (“enrollment baseline”) and again, including actigraphy, once-per-week for the placebo week (“week 1” or “placebo baseline”) and at each of the 4 weeks of NFC-1 treatment. These efficacy measures include items 1-18 of the Vanderbilt scale assessing symptoms related to inattentiveness and hyperactivity-impulsiveness as well as additional questions 19-47 of the Vanderbilt scale assessing other behavioral symptoms (conducted by parent), actigraphy for quantitative measurement of activity, Quotient® ADHD test for objective measurement of micro-motion and shifts in attention state, PERMP-Math test, and CGI-I and CGI-S for assessment of global functioning. […]

[1] = relative to placebo (week 1) baseline, Tier 3, Week 3, up to 100 mg bid
[2] = relative to placebo (week 1) baseline, Tier 3, Week 4, 200 mg bid
[3] = relative to placebo (week 1) baseline, Tier 3, Week 4, up to 200 mg bid
[4] = relative to placebo (week 1) baseline, Tier 3, Week 5, 400 mg bid
[5] = relative to placebo (week 1) baseline, Tier 3, Week 5, up to 400 mg bid
[6] = relative to pre-study (enrollment) baseline, Overall, Week 2, 50 mg bid
[7] = relative to pre-study (enrollment) baseline, Overall, Week 3, 100 mg bid
[8] = relative to pre-study (enrollment) baseline, Overall, Week 3, up to 100 mg bid
[9] = relative to pre-study (enrollment) baseline, Overall, Week 4, 200 mg bid
[10] = relative to pre-study (enrollment) baseline, Overall, Week 4, up to 200 mg bid
[11] = relative to pre-study (enrollment) baseline, Overall, Week 5, 400 mg bid
[12] = relative to pre-study (enrollment) baseline, Tier 1, Week 2, 50 mg bid
[13] = relative to pre-study (enrollment) baseline, Tier 1, Week 3, 100 mg bid
[14] = relative to pre-study (enrollment) baseline, Tier 1, Week 3, up to 100 mg bid
[15] = relative to pre-study (enrollment) baseline, Tier 1, Week 4, 200 mg bid

In the case of `O=C1CC[C@H](C(=O)N2CCCCC2)N1` [NFC-1, fasoracetam monohydrate], the “Percent of subjects demonstrating robust improvement in Vanderbilt ADHD score (at least 40% decrease)” value [1] is reported as 0%, the “Percent of subjects with improvement in Vanderbilt ADHD score (at least 25% decrease)” value [1] is reported as 20% and the “Percent of subjects completing the dose escalation to 400 mg bid that show improvement in Vanderbilt ADHD scores (at least 25% decrease)” value [2] is reported as 0%. The “Percent of subjects completing the dose escalation to 400 mg bid that show robust improvement in Vanderbilt ADHD scores (at least 40% decrease)” value [2] was 0%, the “Percent of subjects demonstrating robust improvement in Vanderbilt ADHD score (at least 40% decrease)” value [3] was 0% and the “Percent of subjects with improvement in Vanderbilt ADHD score (at least 25% decrease)” value [3] was 0%. For the same compound, the “Percent of subjects completing the dose escalation to 400 mg bid that show improvement in Vanderbilt ADHD scores (at least 25% decrease)” value [4] was 0%, the “Percent of subjects completing the dose escalation to 400 mg bid that show robust improvement in Vanderbilt ADHD scores (at least 40% decrease)” value [4] was 0% and the “Percent of subjects demonstrating robust improvement in Vanderbilt ADHD score (at least 40% decrease)” value [5] was 0%. For the same compound, the “Percent of subjects with improvement in Vanderbilt ADHD score (at least 25% decrease)” value [5] was 0%, the “Percent of subjects completing the dose escalation to 400 mg bid that show improvement in Vanderbilt ADHD scores (at least 25% decrease)” value [6] was 41% and the “Percent of subjects completing the dose escalation to 400 mg bid that show robust improvement in Vanderbilt ADHD scores (at least 40% decrease)” value [6] was 35%. For the same compound, the “Percent of subjects demonstrating robust improvement in Vanderbilt ADHD score (at least 40% decrease)” value [6] was 32%, the “Percent of subjects with improvement in Vanderbilt ADHD score (at least 25% decrease)” value [6] was 43% and the “Percent of subjects completing the dose escalation to 400 mg bid that show improvement in Vanderbilt ADHD scores (at least 25% decrease)” value [7] was 53%. For the same compound, the “Percent of subjects completing the dose escalation to 400 mg bid that show robust improvement in Vanderbilt ADHD scores (at least 40% decrease)” value [7] was 24%, the “Percent of subjects demonstrating robust improvement in Vanderbilt ADHD score (at least 40% decrease)” value [8] was 36% and the “Percent of subjects with improvement in Vanderbilt ADHD score (at least 25% decrease)” value [8] was 54%. The “Percent of subjects completing the dose escalation to 400 mg bid that show improvement in Vanderbilt ADHD scores (at least 25% decrease)” value [9] was 53%, the “Percent of subjects completing the dose escalation to 400 mg bid that show robust improvement in Vanderbilt ADHD scores (at least 40% decrease)” value [9] was 35% and the “Percent of subjects demonstrating robust improvement in Vanderbilt ADHD score (at least 40% decrease)” value [10] was 43%. For the same compound, the “Percent of subjects with improvement in Vanderbilt ADHD score (at least 25% decrease)” value [10] was 68%, the “Percent of subjects completing the dose escalation to 400 mg bid that show improvement in Vanderbilt ADHD scores (at least 25% decrease)” value [11] was 82% and the “Percent of subjects completing the dose escalation to 400 mg bid that show robust improvement in Vanderbilt ADHD scores (at least 40% decrease)” value [11] was 47%. The “Percent of subjects with improvement in Vanderbilt ADHD score (at least 25% decrease)” value (relative to pre-study (enrollment) baseline, Overall, Week 5, up to 400 mg bid, monohydrate) was 78% and 75-80%, the “Percent of subjects completing the dose escalation to 400 mg bid that show improvement in Vanderbilt ADHD scores (at least 25% decrease)” value [12] was 56% and the “Percent of subjects completing the dose escalation to 400 mg bid that show robust improvement in Vanderbilt ADHD scores (at least 40% decrease)” value [12] was 44%. For the same compound, the “Percent of subjects demonstrating robust improvement in Vanderbilt ADHD score (at least 40% decrease)” value [12] was 35%, the “Percent of subjects with improvement in Vanderbilt ADHD score (at least 25% decrease)” value [12] was 47% and the “Percent of subjects completing the dose escalation to 400 mg bid that show improvement in Vanderbilt ADHD scores (at least 25% decrease)” value [13] was 89%. The “Percent of subjects completing the dose escalation to 400 mg bid that show robust improvement in Vanderbilt ADHD scores (at least 40% decrease)” value [13] was 44%, the “Percent of subjects demonstrating robust improvement in Vanderbilt ADHD score (at least 40% decrease)” value [14] was 50% and the “Percent of subjects with improvement in Vanderbilt ADHD score (at least 25% decrease)” value [14] was 75%. For the same compound, the “Percent of subjects completing the dose escalation to 400 mg bid that show improvement in Vanderbilt ADHD scores (at least 25% decrease)” value [15] was 89%, the “Percent of subjects completing the dose escalation to 400 mg bid that show robust improvement in Vanderbilt ADHD scores (at least 40% decrease)” value [15] was 56% and the “Percent of subjects demonstrating robust improvement in Vanderbilt ADHD score (at least 40% decrease)” value (relative to pre-study (enrollment) baseline, Tier 1, Week 4, up to 200 mg bid) was 56%.
